Measurements as given in PubChem BioAssay AID1919001 (Molecular Pharmacology Branch, DTP, NCI, 2023).

System: 699152-130-R-J1-PDC complex spheroid growth
Test: Anticancer human tumor 699152-130-R-J1-PDC patient-derived pancreatic carcinoma cell line growth inhibition [AhR]
Settings: for IC50: curve of first compound; for viability, T/C: stronger effect = lower value
Method in brief: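 Agents were dosed in half-log steps down from roughly clinical Cmax, or from 10 microM where Cmax was unknown, alone and with AhR antagonists. Read-out: percent test/control growth of tumor spheroids containing HUVEC and MSC stromal cells.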

[1] = second compound 0.1 µM, first compound 0.0316 µM
[2] = second compound 0.1 µM, first compound 0.1 µM
[3] = second compound 0.1 µM, first compound 0.316 µM
[4] = second compound 0.1 µM, first compound 1 µM
[5] = second compound 0.1 µM, first compound 3.16 µM
[6] = second compound 0.1 µM, first compound 10 µM
[7] = second compound 0.316 µM, first compound 0.0316 µM
[8] = second compound 0.316 µM, first compound 0.1 µM
[9] = second compound 0.316 µM, first compound 0.316 µM
[10] = second compound 0.316 µM, first compound 1 µM
[11] = second compound 0.316 µM, first compound 3.16 µM
[12] = second compound 0.316 µM, first compound 10 µM
[13] = second compound 1 µM, first compound 0.0316 µM
[14] = second compound 1 µM, first compound 0.1 µM
[15] = second compound 1 µM, first compound 0.316 µM
[16] = second compound 1 µM, first compound 1 µM
[17] = second compound 1 µM, first compound 3.16 µM
[18] = second compound 1 µM, first compound 10 µM
[19] = second compound 3.16 µM, first compound 0.0316 µM
[20] = second compound 3.16 µM, first compound 0.1 µM
[21] = second compound 3.16 µM, first compound 0.316 µM
[22] = second compound 3.16 µM, first compound 1 µM
[23] = second compound 3.16 µM, first compound 3.16 µM
[24] = second compound 3.16 µM, first compound 10 µM
[25] = second compound 10 µM, first compound 0.0316 µM
[26] = second compound 10 µM, first compound 0.1 µM
[27] = second compound 10 µM, first compound 0.316 µM
[28] = second compound 10 µM, first compound 1 µM
[29] = second compound 10 µM, first compound 3.16 µM
[30] = second compound 10 µM, first compound 10 µM
[31] = second compound 0.1 µM, first compound 0.00949 µM
[32] = second compound 0.1 µM, first compound 0.03 µM
[33] = second compound 0.1 µM, first compound 0.0949 µM
[34] = second compound 0.1 µM, first compound 0.3 µM
[35] = second compound 0.316 µM, first compound 0.00949 µM
[36] = second compound 0.316 µM, first compound 0.03 µM
[37] = second compound 0.316 µM, first compound 0.0949 µM
[38] = second compound 0.316 µM, first compound 0.3 µM
[39] = second compound 1 µM, first compound 0.00949 µM
[40] = second compound 1 µM, first compound 0.03 µM
[41] = second compound 1 µM, first compound 0.0949 µM
[42] = second compound 1 µM, first compound 0.3 µM
[43] = second compound 3.16 µM, first compound 0.00949 µM
[44] = second compound 3.16 µM, first compound 0.03 µM
[45] = second compound 3.16 µM, first compound 0.0949 µM
[46] = second compound 3.16 µM, first compound 0.3 µM
[47] = second compound 10 µM, first compound 0.00949 µM
[48] = second compound 10 µM, first compound 0.03 µM
[49] = second compound 10 µM, first compound 0.0949 µM
[50] = second compound 10 µM, first compound 0.3 µM
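Note: compound exposure lasted 7 days after spheroids had grown for 3 days.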

For `COc1cc(C2c3cc4c(cc3C(OC3OC5COC(C)OC5C(O)C3O)C3COC(=O)C23)OCO4)cc(OC)c1O` (stereo not given) + Cc1cncc(-c2nc(NCCc3c[nH]c4ccccc34)c3ncn(C(C)C)c3n2)c1, the IC50 (second compound 0.1 µM) was > 10 µM, the IC50 (second compound 0.316 µM) was 7.66 µM and the IC50 (second compound 1 µM) was 9.21 µM. For the same molecule, the IC50 (second compound 3.16 µM) was 2.7 µM, the IC50 (second compound 10 µM) was < 0.0316 µM and the viability, T/C [1] was 106%. For the same molecule, the viability, T/C [2] was 98%, the viability, T/C [3] was 70.1% and the viability, T/C [4] was 70.3%. For the same molecule, the viability, T/C [5] was 58%, the viability, T/C [6] was 52.6% and the viability, T/C [7] was 104%. The viability, T/C [8] was 89.5%, the viability, T/C [9] was 80.2% and the viability, T/C [10] was 67.4%. It also gave a viability, T/C [11] of 58.9%, a viability, T/C [12] of 46.8% and a viability, T/C [13] of 99.6%. The viability, T/C [14] was 97.2%, the viability, T/C [15] was 74.9% and the viability, T/C [16] was 77.5%. For the same molecule, the viability, T/C [17] was 63.6%, the viability, T/C [18] was 47.4% and the viability, T/C [19] was 106%. The viability, T/C [20] was 91.3%, the viability, T/C [21] was 70.1% and the viability, T/C [22] was 60.6%. It also gave a viability, T/C [23] of 48.5%, a viability, T/C [24] of 41.7% and a viability, T/C [25] of 0.93%. It also gave a viability, T/C [26] of 1.13%, a viability, T/C [27] of 1.96% and a viability, T/C [28] of 1.2%. It also gave a viability, T/C [29] of 1.07% and a viability, T/C [30] of 4.92%.
In the case of `CC(C)c1c(-c2ccccc2)nc2c(C#N)c[nH]n2c1=O` + Cc1cncc(-c2nc(NCCc3c[nH]c4ccccc34)c3ncn(C(C)C)c3n2)c1, the IC50 (second compound 0.1 µM) is reported as > 10 µM, the IC50 (second compound 0.316 µM) is reported as > 10 µM and the IC50 (second compound 1 µM) is reported as > 10 µM. For the same molecule, the IC50 (second compound 3.16 µM) was > 10 µM, the IC50 (second compound 10 µM) was < 0.0316 µM and the viability, T/C [1] was 98.9%. It also gave a viability, T/C [2] of 103%, a viability, T/C [3] of 101% and a viability, T/C [4] of 107%. The viability, T/C [5] was 107%, the viability, T/C [6] was 111% and the viability, T/C [7] was 104%. The viability, T/C [8] was 109%, the viability, T/C [9] was 101% and the viability, T/C [10] was 116%. The viability, T/C [11] was 96.4%, the viability, T/C [12] was 96.8% and the viability, T/C [13] was 118%. For the same molecule, the viability, T/C [14] was 118%, the viability, T/C [15] was 121% and the viability, T/C [16] was 125%. It also gave a viability, T/C [17] of 108%, a viability, T/C [18] of 101% and a viability, T/C [19] of 60.4%. It also gave a viability, T/C [20] of 66.4%, a viability, T/C [21] of 65% and a viability, T/C [22] of 58.9%. For the same molecule, the viability, T/C [23] was 58.2%, the viability, T/C [24] was 66.4% and the viability, T/C [25] was 4.82%. For the same molecule, the viability, T/C [26] was 4.89%, the viability, T/C [27] was 5.56% and the viability, T/C [28] was 4.11%. It also gave a viability, T/C [29] of 4.63% and a viability, T/C [30] of 6.54%.
For `O=C(C=Cn1cnc(-c2cc(C(F)(F)F)cc(C(F)(F)F)c2)n1)NNc1cnccn1` + Cc1ccccc1N=Nc1ccc(NC(=O)c2ccnn2C)c(C)c1, the IC50 (second compound 0.1 µM) was > 3 µM, the IC50 (second compound 0.316 µM) was > 3 µM and the IC50 (second compound 1 µM) was > 3 µM. For the same molecule, the IC50 (second compound 3.16 µM) was > 3 µM, the IC50 (second compound 10 µM) was > 3 µM and the viability, T/C [31] was 92.5%. It also gave a viability, T/C [32] of 84.5%, a viability, T/C [33] of 87.8% and a viability, T/C [34] of 75.1%. For the same molecule, the viability, T/C (second compound 0.1 µM, first compound 0.949 µM) was 78.1%, the viability, T/C (second compound 0.1 µM, first compound 3 µM) was 57.5% and the viability, T/C [35] was 85.5%. For the same molecule, the viability, T/C [36] was 82%, the viability, T/C [37] was 82.7% and the viability, T/C [38] was 79.3%. For the same molecule, the viability, T/C (second compound 0.316 µM, first compound 0.949 µM) was 69.1%, the viability, T/C (second compound 0.316 µM, first compound 3 µM) was 58% and the viability, T/C [39] was 92%. It also gave a viability, T/C [40] of 90.8%, a viability, T/C [41] of 93.2% and a viability, T/C [42] of 78.7%. The viability, T/C (second compound 1 µM, first compound 0.949 µM) was 74.2%, the viability, T/C (second compound 1 µM, first compound 3 µM) was 61.6% and the viability, T/C [43] was 97.6%. The viability, T/C [44] was 115%, the viability, T/C [45] was 98.6% and the viability, T/C [46] was 69.6%. For the same molecule, the viability, T/C (second compound 3.16 µM, first compound 0.949 µM) was 76.4%, the viability, T/C (second compound 3.16 µM, first compound 3 µM) was 66.6% and the viability, T/C [47] was 120%. For the same molecule, the viability, T/C [48] was 112%, the viability, T/C [49] was 91.7% and the viability, T/C [50] was 77.5%. For the same molecule, the viability, T/C (second compound 10 µM, first compound 0.949 µM) was 69.9% and the viability, T/C (second compound 10 µM, first compound 3 µM) was 69.7%.
`Nc1ncn(C2CC(O)C(CO)S2)c(=O)n1` (stereo not given) + Cc1ccccc1N=Nc1ccc(NC(=O)c2ccnn2C)c(C)c1 was tested, and the IC50 (second compound 0.1 µM) was > 0.3 µM, the IC50 (second compound 0.316 µM) was > 0.3 µM and the IC50 (second compound 1 µM) was > 0.3 µM. The IC50 (second compound 3.16 µM) was > 0.3 µM, the IC50 (second compound 10 µM) was > 0.3 µM and the viability, T/C (second compound 0.1 µM, first compound 0.000949 µM) was 99.6%. The viability, T/C (second compound 0.1 µM, first compound 0.003 µM) was 98.9%, the viability, T/C [31] was 99% and the viability, T/C [32] was 95.5%. For the same molecule, the viability, T/C [33] was 102%, the viability, T/C [34] was 102% and the viability, T/C (second compound 0.316 µM, first compound 0.000949 µM) was 101%. It also gave a viability, T/C (second compound 0.316 µM, first compound 0.003 µM) of 105%, a viability, T/C [35] of 95.3% and a viability, T/C [36] of 105%. It also gave a viability, T/C [37] of 103%, a viability, T/C [38] of 90.4% and a viability, T/C (second compound 1 µM, first compound 0.000949 µM) of 101%. For the same molecule, the viability, T/C (second compound 1 µM, first compound 0.003 µM) was 101%, the viability, T/C [39] was 103% and the viability, T/C [40] was 107%. It also gave a viability, T/C [41] of 103%, a viability, T/C [42] of 89.8% and a viability, T/C (second compound 3.16 µM, first compound 0.000949 µM) of 90.2%. It also gave a viability, T/C (second compound 3.16 µM, first compound 0.003 µM) of 99%, a viability, T/C [43] of 104% and a viability, T/C [44] of 101%. It also gave a viability, T/C [45] of 100%, a viability, T/C [46] of 95.3% and a viability, T/C (second compound 10 µM, first compound 0.000949 µM) of 114%. For the same molecule, the viability, T/C (second compound 10 µM, first compound 0.003 µM) was 116%, the viability, T/C [47] was 122% and the viability, T/C [48] was 111%. The viability, T/C [49] was 114% and the viability, T/C [50] was 107%.
